Patent publication US12084416B2, “Substituted sulfonylurea derivatives” (Zydus Lifesciences Limited, priority 2019, dated 2024)
Read-outs that look alike come from different tables or passages of the source.

What was measured:
IL-1β [1] = assay: In-vitro IL-1β inhibition assay in PMA-differentiated, LPS-primed, ATP-stimulated THP1 cells; assay type: cell-based; details: Homo sapiens
Method: THP1 monocytes were differentiated with PMA (100 ng/mL) and incubated at 37 deg C. for 20 hrs in presence of 5% CO2. 2×10^5 differentiated cells were plated per well of 96 well tissue culture plates. The cells were primed using 500 ng/mL Lipopolysaccharide and incubating for 4 h under the same condition. The cells were then treated with various concentrations of the compounds for 30 min followed by treatment with 5 mM ATP for 1 hr. The supernatants were collected and analyzed by IL-1b (Mabtech Cat #3415-1H-20) or TNF-α (Mabtech; Cat #3510-1H-20) detection kit. The data were analyzed using GraphPad Prism V7.0. Dose Response Curve (DRC) was constructed to determine the IC50 value by fitting percentage […] data to the GraphPad Prism using nonlinear regression analysis.

IL-1β [2] = assay: In-vivo LPS and ATP induced IL-1β assay; details: Mus musculus, 2.5 h; Dose 10 mpk, po; female C57 mice; serum IL-1β by ELISA; read-out: % IL-1β inhibition in LPS + ATP challenged C57 mice
Method: All the animal experiments were carried out in female rats and mice, bred in-house. Animals were housed in groups of 6 animals per cage, for a week, in order to habituate them to vivarium conditions (25 f 4° C., 60-65% relative humidity, 12:12 h light:dark cycle, with lights on at 7.30 am). All the animal experiments were carried out according to the internationally valid guidelines following approval by the ‘Zydus Research Center animal ethical committee’.
Female C57 mice (6-8 weeks) received intraperitoneal injection of 50 μg/mouse of lipopolysaccharide (LPS) in PBS. Animals were treated immediately with the test compounds or the vehicle. After 2 h of LPS injection, animals were administered with ATP at 12.5 mg/mouse dissolved in PBS via intraperitoneal route. After 30 minutes of ATP injection, serum was collected for IL-1β estimation by ELISA.

[3] = THP-1, THP1 monocytes differentiated with PMA, primed with 500 ng/mL LPS, compound 30 min, 5 mM ATP 1 hr, IL-1β in supernatant, read-out: IC50 (nM), invitro IL-1β inhibitory activity
[4] = THP-1, read-out: IC50 (nM), invitro IL-1β inhibitory activity

Compound	IC50 (IL-1β [1]; [3]) [nM]	other results
O=C(Nc1c2c(cc3c1CCC3)CCC2)NS(=O)(=O)/C=C/C1CCOCC1 [Example 71, (E)-N-((1,2,3,5,6,7-hexahydro-s-indacen-4-yl)carbamoyl)-2-(tetrahydro-2H-pyran-4-yl)ethenesulfonamide]	87	–
O=C(Nc1c2c(cc3c1CCC3)CCC2)NS(=O)(=O)/C=C/[C@H]1CCCN1C1CCSCC1 [Example 139, Sodium(R,E)-((1,2,3,5,6,7-hexahydro-s-indacen-4-yl)carbamoyl)((2-(1-(tetrahydro-2H-thiopyran-4-yl)pyrrolidin-2-yl)vinyl)sulfonyl)amide]	–	IC50 (IL-1β [1]; [4]): 21 nM
CC(=O)N1CCC1/C=C/S(=O)(=O)NC(=O)Nc1c2c(cc3c1CCC3)CCC2 (stereo not drawn) [Example 125, (E)-2-(1-acetylazetidin-2-yl)-N-((1,2,3,5,6,7-hexahydro-s-indacen-4-yl)carbamoyl)ethene-1-sulfonamide]	16.4	–
CN1CCC[C@@]1(C)/C=C/S(=O)(=O)NC(=O)Nc1cc2c(c3c1CCC3)CCC2 [Example 153, (S,E)-2-(1,2-dimethylpyrrolidin-2-yl)-N-((1,2,3,6,7,8-hexahydro-as-indacen-4-yl)carbamoyl)ethene-1-sulfonamide]	–	IC50 (IL-1β [1]; [4]): 32 nM
O=C(Nc1c2c(cc3c1CCC3)CCC2)NS(=O)(=O)/C=C/[C@H]1CCCN1C(=O)c1cnccn1 [Example 14, (R,E)-N-((1,2,3,5,6,7-hexahydro-s-indacen-4-yl)carbamoyl)-2-(1-(pyrazine-2-carbonyl)pyrrolidin-2-yl)ethenesulfonamide]	17	–
C[C@@]1(/C=C/S(=O)(=O)NC(=O)Nc2c3c(cc4c2CCC4)CCC3)CCCN1 [Example 105, (S,E)-N-((1,2,3,5,6,7-hexahydro-s-indacen-4-yl)carbamoyl)-2-(2-methylpyrrolidin-2-yl)ethene-1-sulfonamide]	61	–
CC(C)(C)OC(=O)N1CCC[C@@]1(C)/C=C/S(=O)(=O)NC(=O)Nc1c2c(cc3c1CCC3)CCC2 [Example 111, tert-butyl(S,E)-2-(2-(N-((1,2,3,5,6,7-hexahydro-s-indacen-4-yl)carbamoyl)sulfamoyl)vinyl)-2-methylpyrrolidine-1-carboxylate]	4.3	–
CS(=O)(=O)CCCN1CCC[C@@H]1/C=C/S(=O)(=O)NC(=O)Nc1c2c(cc3c1CCC3)CCC2 [Example 23, (R,E)-N-((1,2,3,5,6,7-hexahydro-s-indacen-4-yl)carbamoyl)-2-(1-(3-(methylsulfonyl)propyl)pyrrolidin-2-yl)ethenesulfonamide]	14	–
O=C(Nc1c2c(cc3c1CCC3)CCC2)NS(=O)(=O)/C=C/[C@H]1CCCN1S(=O)(=O)c1cccc(F)c1 [Example 13, (R,E)-2-(1-((3-fluorophenyl)sulfonyl)pyrrolidin-2-yl)-N-((1,2,3,5,6,7-hexahydro-s-indacen-4-yl)carbamoyl)ethenesulfonamide]	9	–
CC[C@@]1(/C=C/S(=O)(=O)NC(=O)Nc2c3c(cc4c2CCC4)CCC3)CCCN1C(=O)OC(C)(C)C [Example 149, tert-butyl(S,E)-2-ethyl-2-(2-(N-((1,2,3,5,6,7-hexahydro-s-indacen-4-yl)carbamoyl)sulfamoyl)vinyl)pyrrolidine-1-carboxylate]	–	IC50 (IL-1β [1]; [4]): 11 nM
O=C(Nc1c2c(cc3c1CCC3)CCC2)NS(=O)(=O)/C=C/[C@@H]1CCCN1S(=O)(=O)c1ccc(Cl)s1 [Example 90, (S,E)-2-(1-((5-chlorothiophen-2-yl)sulfonyl)pyrrolidin-2-yl)-N-((1,2,3,5,6,7-hexahydro-s-indacen-4-yl)carbamoyl)ethenesulfonamide]	16	–
CN1CCCCC1/C=C/S(=O)(=O)NC(=O)Nc1c2c(cc3c1CCC3)CCC2 (stereo not drawn) [Example 101, (E)-N-((1,2,3,5,6,7-hexahydro-s-indacen-4-yl)carbamoyl)-2-(1-methylpiperidin-2-yl)ethene-1-sulfonamide]	–	inhibition in vivo at 10 mg/kg (IL-1β [2]): 82%
C[C@]1(/C=C/S(=O)(=O)NC(=O)Nc2c3c(cc4c2CCC4)CCC3)CCCN1S(C)(=O)=O [Example 55, (R,E)-N-((1,2,3,5,6,7-hexahydro-s-indacen-4-yl)carbamoyl)-2-(2-methyl-1-(methylsulfonyl)-pyrrolidin-2-yl)ethene-1-sulfonamide]	–	inhibition in vivo at 10 mg/kg (IL-1β [2]): 82.5%
CN1CCC[C@@]1(C)/C=C/S(=O)(=O)NC(=O)Nc1c2c(cc3c1CCC3)CCC2 [Example 144, sodium(S,E)-((2-(1,2-dimethylpyrrolidin-2-yl)vinyl)sulfonyl)((1,2,3,5,6,7-hexahydro-s-indacen-4-yl)carbamoyl)amide]	–	IC50 (IL-1β [1]; [4]): 8.6 nM
C=CCN1CCC[C@H]1/C=C/S(=O)(=O)NC(=O)Nc1c2c(cc3c1CCC3)CCC2 [Example 127, (S,E)-2-(1-allylpyrrolidin-2-yl)-N-((1,2,3,5,6,7-hexahydro-s-indacen-4-yl)carbamoyl)ethene-1-sulfonamide]	5.6	–
CC(C)N1CCC[C@@H]1/C=C/S(=O)(=O)NC(=O)Nc1c2c(cc3c1CCC3)CCC2 [Example 22, (R,E)-N-((1,2,3,5,6,7-hexahydro-s-indacen-4-yl)carbamoyl)-2-(1-isopropylpyrrolidin-2-yl)ethene-1-sulfonamide]	–	inhibition in vivo at 10 mg/kg (IL-1β [2]): 83%
O=C(Nc1c2c(cc3c1CCC3)CCC2)NS(=O)(=O)/C=C/[C@H]1CCCN1C1CCSCC1 [Example 40, (R,E)-N-((1,2,3,5,6,7-hexahydro-s-indacen-4-yl)carbamoyl)-2-(1-(tetrahydro-2H-thiopyran-4-yl)pyrrolidin-2-yl)ethene-1-sulfonamide]	–	inhibition in vivo at 10 mg/kg (IL-1β [2]): 86%
CCS(=O)(=O)N1CCC[C@@H]1/C=C/S(=O)(=O)NC(=O)Nc1c2c(cc3c1CCC3)CCC2 [Example 21, (R,E)-2-(1-(ethylsulfonyl)pyrrolidin-2-yl)-N-((1,2,3,5,6,7-hexahydro-s-indacen-4-yl)carbamoyl)ethene-1-sulfonamide]	2.4	–
CC(C)(C)OC(=O)N1CCC1(C)/C=C/S(=O)(=O)NC(=O)Nc1c2c(cc3c1CCC3)CCC2 (stereo not drawn) [Example 147, tert-butyl(E)-2-(2-(N-((1,2,3,5,6,7-hexahydro-s-indacen-4-yl)carbamoyl)sulfamoyl)vinyl)-2-methylazetidine-1-carboxylate]	–	IC50 (IL-1β [1]; [4]): 11 nM
O=C(Nc1c2c(cc3c1CCC3)CCC2)NS(=O)(=O)/C=C/[C@@H]1CCCN1S(=O)(=O)c1cccnc1 [Example 63, (S,E)-N-((1,2,3,5,6,7-hexahydro-s-indacen-4-yl)carbamoyl)-2-(1-(pyridin-3-ylsulfonyl)-pyrrolidin-2-yl)ethenesulfonamide]	8	–
CC(=O)N1CCC[C@@H]1/C=C/S(=O)(=O)NC(=O)Nc1c2c(cc3c1CCC3)CCC2 [Example 8, (R,E)-2-(1-acetylpyrrolidin-2-yl)-N-((1,2,3,5,6,7-hexahydro-s-indacen-4-yl)carbamoyl)-ethene-1-sulfonamide]	10.7	–
CC(C)(C)OC(=O)N1CCC[C@@H]1/C=C/S(=O)(=O)NC(=O)Nc1c2c(cc3c1CCC3)CCC2 [Example 10, tert-butyl (R,E)-2-(2-(N-((1,2,3,5,6,7-hexahydro-s-indacen-4-yl)carbamoyl)sulfamoyl)-vinyl)pyrrolidine-1-carboxylate]	64	–
CS(=O)(=O)N1CCCC(/C=C/S(=O)(=O)NC(=O)Nc2c3c(cc4c2CCC4)CCC3)C1 (stereo not drawn) [Example 84, (E)-N-((1,2,3,5,6,7-hexahydro-s-indacen-4-yl)carbamoyl)-2-(1-(methylsulfonyl)piperidin-3-yl)ethenesulfonamide]	8.5	–
CC(C)(C)OC(=O)N1CC2CC(N3CCC[C@@H]3/C=C/S(=O)(=O)NC(=O)Nc3c4c(cc5c3CCC5)CCC4)CC2C1 (stereo partly drawn) [Example 131, tert-butyl 5-((R)-2-((E)-2-(N-((1,2,3,5,6,7-hexahydro-s-indacen-4-yl)carbamoyl)sulfamoyl)vinyl)pyrrolidin-1-yl)hexahydrocyclopenta[c]pyrrole-2 (1H)-carboxylate]	16	–
C[C@@]1(/C=C/S(=O)(=O)NC(=O)Nc2c3c(cc4c2CCC4)CCC3)CCCN1S(=O)(=O)C1CC1 [Example 129, (S,E)-2-(1-(cyclopropylsulfonyl)-2-methylpyrrolidin-2-yl)-N-((1,2,3,5,6,7-hexahydro-s-indacen-4-yl)carbamoyl)ethene-1-sulfonamide]	5.9	–
O=C(Nc1c2c(cc3c1CCC3)CCC2)NS(=O)(=O)/C=C/[C@@H]1CCCN1S(=O)(=O)Cc1ccccc1 [Example 91, (S,E)-2-(1-(benzylsulfonyl)pyrrolidin-2-yl)-N-((1,2,3,5,6,7-hexahydro-s-indacen-4-yl)carbamoyl)ethenesulfonamide]	2.9	–
O=C(Nc1c2c(cc3c1CCC3)CCC2)NS(=O)(=O)/C=C/C1CCCCN1 (stereo not drawn) [Example 100, (E)-N-((1,2,3,5,6,7-hexahydro-s-indacen-4-yl)carbamoyl)-2-(piperidin-2-yl)ethene-1-sulfonamide]	70	–
